Experimental data from patent publication US20160090578A1, “ENZYMES […] GLYCOSYLATION OF POLYPHENOLS” (priority 2013, published 2016).

Columns and labels:
MgtC = format: cell-based, Bacillus sp. BCG+1; conditions: E. coli DH5α pDrive::mgtC, whole cell catalysis
GtfC = test: Biotransformation assays with E. coli expressing recombinant GtfC, quantified by TLC; format: cell-based, Elbe river sediment metagenome; conditions: for Conversion (%): whole-cell biotransformation, 50 mL, 50 mM sodium phosphate buffer pH 7.0, 1% (w/v) glucose, 200 μM flavonoid, 30° C., triplicate; for Conversion in GtfC biotransformation (in words): whole-cell biotransformation with E. coli expressing GtfC
Procedure: The supernatant was applied in TLC analysis.
(§1) The supernatant transferred into HPLC flat bottom vials was used for TLC analysis. Samples of 20 μL were applied on 20×10 cm^2 (HP)TLC silica 60 F254 plates (Merck KGaA, Darmstadt, Germany) versus 200 pmol of reference flavonoids. To avoid carryover of substances, i.e. prevent false positives, samples were spotted with double syringe rinsing in between by the ATS 4. The sampled TLC plates were developed in ethyl acetate/acetic acid/formic acid/water 100:11:11:27 (‘Universal Pflanzenlaufmittel’) (41). After separation the TLC plates were dried in an oven at 80° C. for five minutes. The absorbance of the separated bands was determined densitometrically depending on the absorbance maximum of the applied educt substances at 285 to 370 nm using the deuterium lamp in a TLC Scanner 3 (CAMAG, Muttenz, Switzerland). Subsequently, the substances on developed TLC plates were derivatized by dipping the plates in a methanolic solution of 1% (w/v) diphenyl boric acid β-aminoethyl ester (DPBA) (42) for one second using a Chromatogram Immersion Device (CAMAG, Muttenz, Switzerland) followed by drying the TLC plates in hot air with a fan. After two minutes the bands were visualized at 365 nm with a UV hand lamp and photographed. Alternatively, fluorescence of the bands was determined densitometrically by the TLC Scanner 3 depending on the absorbance maximum of the applied substances at 320 to 370 nm.
(§2) Samples of 20 μL were sprayed by an ATS 4 (CAMAG, Muttenz, Switzerland) on HPTLC silica 60 F254 plates (Merck KGaA, Darmstadt, Germany) versus different amounts of respective standard educt and product substances. TLC plates were developed, dried, derivatized and analyzed as stated above. Regression curves were calculated from the peak area of the applied reference substances to determine the amount of produced and residual flavonoids.

MgtB = test: Biocatalytic reactions with purified recombinant His-tagged MgtB and UDP-glucose, quantified by TLC; format: biochemical, Bacillus sp. HH1500; conditions: for Acceptor substrate modification by His10-MgtB (in words): 500 μM UDP-α-D-glucose as donor, 100 μM acceptor substrate; for Conversion (%): 1 mL, 37° C., 2 hours, triplicate, 500 μM UDP-glucose, 100 μM flavonoid, 5 μg/mL purified recombinant MgtB
Procedure: as §1, §2

MgtT = conditions: E. coli DH5α pDrive::mgtT, whole cell catalysis
Procedure: (§3) For the detection of flavonoid modifications in bacteria a biotransformation approach was used. Cultures were grown in LB medium with appropriate antibiotic overnight. Expression cultures were prepared as stated above for overproduction of enzymes. The cells were sedimented by centrifugation at 4,500 g and resuspended in 50 mM sodium phosphate buffer pH 7 supplemented with 1% (w/v) α-D-glucose. Biotransformations with a final concentration of 100 μM flavonoid inoculated from stock solutions of 100 mM in DMSO, i.e. 0.1%, were incubated in Erlenmeyer flasks at 30° C. and 175 rpm up to 24 hours. Samples of 4 mL were withdrawn and acidified with 100 μL H3PO4 aq for extraction in 2 mL ethyl acetate. They were shaken for 1 minute and phase separated by centrifugation at 2,000 g and 4° C. The supernatant was applied in TLC analysis. For quantification, samples of 100 μL were taken and dissolved 1/10 in ethyl acetate/acetic acid 3:1. These acidified ethyl acetate samples were centrifuged at 10,000 g. The supernatant was used for quantitative TLC analysis as stated below.

MgtW = conditions: E. coli DH5α pDrive::mgtW, whole cell catalysis
Procedure: as §3

| SMILES | Reaction in biotransformation with MgtC (MgtC) | Conversion (%) (GtfC) | Acceptor substrate modification by His10-MgtB (in words) (MgtB) | Conversion (%) (MgtB) | also measured |
| --- | --- | --- | --- | --- | --- |
| O=c1cc(-c2ccc(O)c(O)c2)oc2cc(O)cc(O)c12 [Luteolin] | shown | 86% | modified with high yields | 82% | – |
| Oc1ccc(/C=C/c2cc(O)cc(O)c2)cc1 [t-Resveratrol] | – | 96% | – | – | – |
| COc1cc(O)c(CC=C(C)C)c(O)c1C(=O)/C=C/c1ccc(O)cc1 [Xanthohumol] | – | 52% | – | – | – |
| Cc1cc(=O)oc2cc(O)ccc12 [4-Methylumbelliferone, 7-Hydroxy-4-methylcoumarin] | – | – | – | – | Reaction in biotransformation with MgtT (MgtT): shown |
| O=C(CCc1ccc(O)cc1)c1c(O)cc(O)cc1O [phloretin] | shown | – | – | – | Reaction in biotransformation with MgtW (MgtW): shown; Reaction in biotransformation with MgtT (MgtT): shown |
| O=c1c(O)c(-c2ccc(O)c(O)c2)oc2cc(O)cc(O)c12 [Quercetin] | shown | ~100% | modified with high yields | ~100% | Reaction in biotransformation with MgtW (MgtW): shown; Conversion in GtfC biotransformation (in words) (GtfC): transformed almost completely; Conversion (%) (MgtB; listed as quercetin): approximately 100% |
| O=C(/C=C/c1ccc(O)cc1)OC[C@H]1O[C@@H](Oc2c(-c3ccc(O)cc3)oc3cc(O)cc(O)c3c2=O)[C@H](O)[C@@H](O)[C@@H]1O [Tiliroside, kaempferol-3-O-6″-coumaroyl-glucoside] | – | – | modified with high yields | 83% | – |
| O=c1c(-c2ccc(O)cc2)coc2cc(O)cc(O)c12 [Genistein] | – | 68% | modified with high yields | 72% | – |
| COc1ccc(-c2cc(=O)c3ccc(O)cc3o2)cc1 [Pratol] | – | – | – | – | Conversion in GtfC biotransformation (in words) (GtfC): converted weakly |
| O=c1cc(-c2ccc(O)cc2)oc2cc(O)cc(O)c12 [apigenin] | shown | – | – | – | – |
| Cc1cc(=O)c2c(O)cc(O)cc2o1 [noreugenin] | shown | – | – | – | – |
| O=c1c(O)c(-c2ccc(O)cc2)oc2cc(O)cc(O)c12 [Kaempferol] | – | ~100% | modified with high yields | ~100% | Conversion (%) (MgtB; listed as kaempferol): approximately 100% |
| COc1cc([C@@H]2CC(=O)c3c(O)cc(O)cc3O2)ccc1O [homoeriodytiol] | shown | – | – | – | Reaction in biotransformation with MgtW (MgtW): shown; Reaction in biotransformation with MgtT (MgtT): shown |
